Several values for one entry are separate records, joined by “and”; a condition that tells them apart may be missing. Equal entries are not always repeated.
Tests used:
HDM2_25–117 = biological target: T1, HDM2_25–117 (Homo sapiens, UniProt Q00987); assay: direct binding fluorescence polarization assay; details: for fluorescence polarization: oligomer 10 nM, three independent replicates
T1 construct: unnamed fusion partner ('fusion protein'); made in house; host or cells: E. coli BL21
Protocol: To measure the binding affinity of the functionalized spiroligomers to HDM2 we utilized a direct binding fluorescence polarization assay. The binding of the fluorescein labeled spiroligomers was measured at 10 nM spiroligomer in the presence of varying concentrations of HDM2_25–117 [31]. […] The initial screen of spiroligomers including 3–7 was carried out on the spiroligomer backbone containing all (S) stereochemistry to identify appropriate functional groups to mimic the side chains of Phe19, Trp23 and Leu26 of the p53 helix.
HDM2 Protein Expression. A fusion protein consisting of residues 1-140 (the plasmid was a generous gift from the lab of Neil Zondlo, University of Delaware) was prepared by over-expression.4 Plasmids were used to transform chemically competent E-coli BL21 Cells (Novagen), and a single colony was used to inoculate 2×4 mL LB media culture tubes containing 0.1 mg/mL ampicillin, at 37 °C overnight. These overnight cultures were used to inoculate a 1 L culture of TB media containing 0.1 mg/ml ampicillin. The culture was incubated at 37 °C with shaking at 250 rpm until the optical density at 600 nm reached to 0.9 absorbance units. Protein overexpression was then induced by the addition of 20% isopropyl β-D-thiogalactoside (IPTG) to 0.4 mM final concentration. The culture was then grown for additional 5 hours at 30 °C. Then cells were harvested at 4 °C by centrifugation at 4500 rpm for 20 min.
The cell pellet was resuspended in chilled 1x Binding Buffer (0.5 M NaCl, 20 mMTris-Hcl, 5 mM imidazole, pH 7.9), frozen and stored at -80 °C until protein purification.
Protein Purification. The frozen cell pellet was thawed at 4 °C and lysed by sonication for 2 minutes with 10 sec on and 20 sec off. Cell debris was pelleted by centrifugation for 30 min at 15000 g, 4 °C and the supernatant was filtered through a 0.2 μm syringe filter. A column was prepared using 2 mL Novagen His-Bind suspended resin and resin was washed with 3 volumes DI water. The flow rate maintained was not more than 0.5 ml/min throughout the purification.
The resin was charged with 5 vol 1x Charge Buffer (50 mM NiSO4) and then equilibrated with 3 vol 1x Binding Buffer (5 mM imidazole). After loading the column with prepared extract, the resin was washed with 10 vol 1x Binding Buffer and then with 6 vol 1x Wash Buffer (10 mM imidazole). Protein was then eluted with 6 vol 1x Elution Buffer (1 M imidazole). The eluate was captured in fractions of 0.5 ml. Fractions were assayed with Coomasie blue and desired fractions were combined and dialyzed using spectra/por 6 Dialysis Membranes of 10,000 MWCO (Spectrum Laboratories) in PBS (pH 7.4, 5 mM EDTA and 0.5 mM DTT) for overnight.
The resulting protein was characterized by SDS-PAGE (4-20% gradient gel) for purity analysis and concentrations were measured by UV analysis.
Fresh protein was used immediately for protein binding experiments. […]
Direct Binding Fluorescence Polarization Experiments. Fluorescence polarization experiments were undertaken to assess the ability of spiroligomers to bind HDM2, a protein with hydrophobic cleft that binds the p53 N-terminal helical domain. Fluoresceinated oligomers (conc. of 10 nM) were incubated for 30 minutes at room temperature with sequential dilutions of […]

HDMX = biological target: T2, HDMX (Homo sapiens, UniProt O15151); assay: binding experiments with HDMX
T2 sequence (O15151 1-490): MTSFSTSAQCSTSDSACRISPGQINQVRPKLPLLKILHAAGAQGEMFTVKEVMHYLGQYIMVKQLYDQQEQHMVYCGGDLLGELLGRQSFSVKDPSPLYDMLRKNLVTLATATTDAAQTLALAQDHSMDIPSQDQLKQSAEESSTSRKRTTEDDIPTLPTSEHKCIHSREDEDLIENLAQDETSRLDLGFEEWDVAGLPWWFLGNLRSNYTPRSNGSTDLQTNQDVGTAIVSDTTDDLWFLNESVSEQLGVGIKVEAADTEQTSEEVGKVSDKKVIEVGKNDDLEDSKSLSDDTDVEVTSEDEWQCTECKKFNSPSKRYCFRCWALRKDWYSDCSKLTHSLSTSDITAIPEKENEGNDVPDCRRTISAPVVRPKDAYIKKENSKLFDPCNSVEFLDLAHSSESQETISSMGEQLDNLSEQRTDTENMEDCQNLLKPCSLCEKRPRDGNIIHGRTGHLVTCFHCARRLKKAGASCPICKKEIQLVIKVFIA

T1 sequence (Q00987 25-117): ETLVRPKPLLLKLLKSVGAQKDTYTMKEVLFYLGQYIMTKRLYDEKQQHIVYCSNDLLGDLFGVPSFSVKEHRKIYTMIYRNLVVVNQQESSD

Question: `CC(C)CN1C(=O)[C@@H]2C[C@@]3(CN2C(=O)[C@@]12C[C@H]1C(=O)N(Cc4ccc(Cl)c(Cl)c4)[C@]4(C[C@@H]5C(=O)N[C@@H](CCc6ccccc6)C(=O)N5C4)C(=O)N1C2)NC(=O)[C@@H](CCCCNC(=S)Nc1ccc2c(c1)C(=O)OC21c2ccc(O)cc2Oc2cc(O)ccc21)NC3=O` [Compound 1] was tested. Which “increase in affinity for HDM2” value (HDM2_25–117; 1 versus 9, differing only in the stereocenter of the lysine residue) did it give?
Answer: ~17 fold

Question: And the fluorescence polarization (HDM2_25–117; [hDM2] 0.08106232 nM)?
Answer: 68. 58 millipolarization and 68. 27 millipolarization and 70. 47 millipolarization

Question: What about the fluorescence polarization (HDM2_25–117; [hDM2] 0.1621246 nM) of the same molecule?
Answer: 65. 92 millipolarization and 65. 99 millipolarization and 65. 14 millipolarization

Question: And the fluorescence polarization (HDM2_25–117; [hDM2] 0.3242493 nM)?
Answer: 75. 62 millipolarization and 76. 93 millipolarization and 62. 45 millipolarization

Question: And the fluorescence polarization (HDM2_25–117; [hDM2] 0.6484985 nM)?
Answer: 76. 88 millipolarization and 65. 12 millipolarization and 66. 54 millipolarization

Question: What about the fluorescence polarization (HDM2_25–117; [hDM2] 1.296997 nM) of the same molecule?
Answer: 74. 46 millipolarization and 61. 79 millipolarization and 70. 28 millipolarization

Question: And the fluorescence polarization (HDM2_25–117; [hDM2] 2.593994 nM)?
Answer: 69. 71 millipolarization and 64. 6 millipolarization and 67. 34 millipolarization

Question: And the fluorescence polarization (HDM2_25–117; [hDM2] 5.187988 nM)?
Answer: 68. 52 millipolarization and 66. 82 millipolarization and 65. 52 millipolarization

Question: And the fluorescence polarization (HDM2_25–117; [hDM2] 10.37598 nM)?
Answer: 78. 3 millipolarization and 73. 95 millipolarization and 76. 62 millipolarization

Question: What about the fluorescence polarization (HDM2_25–117; [hDM2] 20.75195 nM) of the same molecule?
Answer: 75. 45 millipolarization and 72. 99 millipolarization and 76. 91 millipolarization

Question: And the fluorescence polarization (HDM2_25–117; [hDM2] 41.50391 nM)?
Answer: 82. 2 millipolarization and 90. 13 millipolarization and 83. 56 millipolarization

Question: What about the fluorescence polarization (HDM2_25–117; [hDM2] 83.00781 nM) of the same molecule?
Answer: 90. 07 millipolarization and 92. 68 millipolarization and 90. 31 millipolarization

Question: What about the fluorescence polarization (HDM2_25–117; [hDM2] 166.0156 nM) of the same molecule?
Answer: 123. 93 millipolarization and 122. 78 millipolarization and 128. 68 millipolarization

Question: What about the fluorescence polarization (HDM2_25–117; [hDM2] 332.0313 nM) of the same molecule?
Answer: 176. 96 millipolarization and 168. 11 millipolarization and 165. 21 millipolarization

Question: And the fluorescence polarization (HDM2_25–117; [hDM2] 664.0625 nM)?
Answer: 219. 16 millipolarization and 207. 64 millipolarization and 219. 81 millipolarization

Question: What about the fluorescence polarization (HDM2_25–117; [hDM2] 1328.125 nM) of the same molecule?
Answer: 249. 64 millipolarization and 254. 41 millipolarization and 260. 31 millipolarization

Question: And the fluorescence polarization (HDM2_25–117; [hDM2] 2656.25 nM)?
Answer: 276. 63 millipolarization and 280. 28 millipolarization and 279. 87 millipolarization

Question: What about the fluorescence polarization (HDM2_25–117; [hDM2] 5312.5 nM) of the same molecule?
Answer: 283. 09 millipolarization and 283. 22 millipolarization and 294. 56 millipolarization

Question: And the fluorescence polarization (HDM2_25–117; [hDM2] 10625 nM)?
Answer: 279. 23 millipolarization and 291. 88 millipolarization and 291. 17 millipolarization

Question: What about the fluorescence polarization (HDM2_25–117; [hDM2] 21250 nM) of the same molecule?
Answer: 289. 83 millipolarization and 291. 58 millipolarization and 284. 9 millipolarization

Question: And the fluorescence polarization (HDM2_25–117; [hDM2] 42500 nM)?
Answer: 280. 74 millipolarization and 287. 71 millipolarization and 288. 59 millipolarization

Question: What about the “difference in binding to HDM2” value (HDM2_25–117; epimers 12 and 1) of the same molecule?
Answer: four-fold

Question: And the Kd (HDM2_25–117; fluorescein labeled ligand at 10 nM, varying HDM2, read-out: Kd (HDM2))?
Answer: 0.4 µM

Question: What about the “selectivity HDM2 versus HDMX” value (HDMX; Kd HDM2 0.4 µM versus Kd HDMX 19 µM) of the same molecule?
Answer: selective for HDM2

Question: What about the Kd (HDMX; data not shown) of the same molecule?
Answer: 19 µM

Source: PMC3475717, “A Spiroligomer α-Helix Mimic That Binds HDM2, Penetrates Human Cells and Stabilizes HDM2 in Cell Culture” (PLoS ONE, 2012)
